From US8933232B2, “1,3,4-oxadiazole and 1,3,4-thiadiazole beta-lactamase inhibitors” (priority 2012, dated 2015)
Where a name gives a salt, the structure may show the parent alone.

Test system: bacterial strains that express KPC β-lactamases
Assay: Synergy MIC / standard BLI potentiation MIC assay against strains expressing KPC β-lactamases
Type: cell-based
Settings: in the presence of a β-lactam; comparator Avibactam
Protocol: The experimental protocol was performed according to Clinical and Laboratory Standards Institute (CLSI) guidelines with modifications as described below (CLSI guidelines can be derived from the CLSI document M07-A9 published in January 2012: “Methods for Dilution Antimicrobial Susceptibility Tests for Bacteria That Grow Aerobically; Approved Standard-Ninth Edition”).
To prepare for MIC testing, frozen glycerol stocks of clinical isolates (Klebsiella pneumoniae, Eschericia coli, Enterobacter spp, Citrobacter spp, or Pseudomonas aeruginosa) were used to streak for isolated colonies on rich, non-selective, tryptic soy agar containing 5% sheep's blood (TSAB). Frozen glycerol stocks of laboratory engineered, isogenic E. coli strains, which contain cloned β-lactamase expressing plasmids were used to streak for isolated colonies on rich, selective LB agar supplemented with 25 μg/mL tetracycline to maintain the plasmid. All strains were incubated at 37° C. for 18-24 hrs.
On the day of testing, primary cultures were started by scraping off 5-10 colonies from the TSAB plates containing clinical strains or the tetracycline supplemented LB plates containing engineered strains. The clinical strain material was suspended in ˜5 mL of cation adjusted Mueller Hinton Broth (CAMHB) in 14 mL culture tubes. The engineered strain material was suspended in CAMHB (supplemented with 25 μg/mL tetracycline) in 14 mL culture tubes. All strains were incubated at 37° C. with aeration (200 rpm) for ˜2 hrs until the optical density at 600 nm (OD600) was >0.1.
The two compound components of the assay were each diluted in CAMHB and added to the 96-well broth microdilution assay plates. 50 μL of the β-lactam was added to each well of the assay plate in 2-fold dilutions with final concentrations ranging from 128 to 0.13 μg/mL. 25 μL, of the BLI compound was added to all wells in the broth microdilution plates at a final concentration of 4 μg/mL. Inoculum cultures were prepared by standardizing the primary cultures to OD600=0.1 and then adding 20 μL of the adjusted primary culture per 1 mL CAMHB for clinical strains or CAMHB (supplemented with tetracycline at 100 μg/mL) for engineered strains, so that the final inoculum density was ˜10^5 colony forming units per milliliter. Diluted inoculum cultures were used to inoculate 25 μl, per well in 96-well broth microdilution assay plates. The final volume of each well was 100 μL and contained a β-lactam at different concentrations, a BLIcompound at 4 μg/mL concentration, the bacterial culture at an OD600 of approximately 0.001 and when necessary tetracycline at 25 μg/mL.
Plates were incubated for 18-20 hours at 37° C. with aeration (200 rpm). Following incubation, growth was confirmed visually placing plates over a viewing apparatus (stand with a mirror underneath) and then OD600 was measured using a SpectraMax 340PC384 plate reader (Molecular Devices, Sunnyvale, Calif.). Growth was defined as turbidity that could be detected with the naked eye or achieving minimum OD600 of 0.1. MIC values were defined as the lowest concentration producing no visible turbidity.
The synergy MIC (sMIC) assay determines the concentration of the BLI required to potentiate the activity of a fixed concentration of a β-lactam antibiotic against β-lactamase producing bacterial strains. The experimental protocol was performed according to Clinical and Laboratory Standards Institute (CLSI) guidelines with modifications as described below (CLSI guidelines can be derived from the CLSI document M07-A9 published in January 2012: “Methods for Dilution Antimicrobial Susceptibility Tests for Bacteria That Grow Aerobically; Approved Standard-Ninth Edition”). […]

`N[C@H]1C[C@@H](CCc2nnc([C@@H]3CC[C@@H]4CN3C(=O)N4OS(=O)(=O)O)o2)C1` [Compound 754, (2S,5R)-2-(5-(2-((1s,3S)-3-aminocyclobutyl)ethyl)-1,3,4-oxadiazol-2-yl)-7-oxo-1,6-diazabicyclo[3.2.1]octan-6-yl hydrogen sulfate] was tested, and the “more active than Avibactam for at least one bacterial strain that expresses KPC β-lactamase and/or better spectrum of activity against KPC strains” value (“more active than Avibactam … against KPC strains” below) was “more active than Avibactam”.
In the case of `NC1CC(NCc2nnc([C@@H]3CC[C@@H]4CN3C(=O)N4OS(=O)(=O)O)o2)C1` (stereo partly drawn) [Compound 755, (2S,5R)-2-(5-(((3-aminocyclobutyl)amino)methyl)-1,3,4-oxadiazol-2-yl)-7-oxo-1,6-diazabicyclo[3.2.1]octan-6-yl hydrogen sulfate], the “more active than Avibactam … against KPC strains” value is reported as “more active than Avibactam”.
For `N[C@H]1C[C@@H](NCc2nnc([C@@H]3CC[C@@H]4CN3C(=O)N4OS(=O)(=O)O)o2)C1` [Compound 756, (2S,5R)-2-(5-((((1s,3R)-3-aminocyclobutyl)amino)methyl)-1,3,4-oxadiazol-2-yl)-7-oxo-1,6-diazabicyclo[3.2.1]octan-6-yl hydrogen sulfate], the “more active than Avibactam … against KPC strains” value was “more active than Avibactam”.
With `O=C1N2C[C@@H](CC[C@H]2c2nnc([C@H]3CCNC3)o2)N1OS(=O)(=O)O` [Compound 758, (2S,5R)-7-oxo-2-(5-((S)-pyrrolidin-3-yl)-1,3,4-oxadiazol-2-yl)-1,6-diazabicyclo[3.2.1]octan-6-yl hydrogen sulfate] the “more active than Avibactam … against KPC strains” value was “more active than Avibactam”.
In the case of `O=C1N2C[C@@H](CC[C@H]2c2nnc([C@@H]3CCNC3)o2)N1OS(=O)(=O)O` [Compound 759, (2S,5R)-7-oxo-2-(5-((R)-pyrrolidin-3-yl)-1,3,4-oxadiazol-2-yl)-1,6-diazabicyclo[3.2.1]octan-6-yl hydrogen sulfate], the “more active than Avibactam … against KPC strains” value is reported as “more active than Avibactam”.
`N[C@@H]1CN[C@H](c2nnc([C@@H]3CC[C@@H]4CN3C(=O)N4OS(=O)(=O)O)o2)C1` [Compound 760, (2S,5R)-2-(5-((2S,4S)-4-aminopyrrolidin-2-yl)-1,3,4-oxadiazol-2-yl)-7-oxo-1,6-diazabicyclo[3.2.1]octan-6-yl hydrogen sulfate] was tested, and the “more active than Avibactam … against KPC strains” value was “more active than Avibactam”.
`N[C@H]1CN[C@@H](c2nnc([C@@H]3CC[C@@H]4CN3C(=O)N4OS(=O)(=O)O)o2)C1` [Compound 761, (2S,5R)-2-(5-((2R,4R)-4-aminopyrrolidin-2-yl)-1,3,4-oxadiazol-2-yl)-7-oxo-1,6-diazabicyclo[3.2.1]octan-6-yl hydrogen sulfate] was tested, and the “more active than Avibactam … against KPC strains” value was “more active than Avibactam”.
In the case of `N[C@H]1CN[C@H](c2nnc([C@@H]3CC[C@@H]4CN3C(=O)N4OS(=O)(=O)O)o2)C1` [Compound 762, (2S,5R)-2-(5-((2S,4R)-4-aminopyrrolidin-2-yl)-1,3,4-oxadiazol-2-yl)-7-oxo-1,6-diazabicyclo[3.2.1]octan-6-yl hydrogen sulfate], the “more active than Avibactam … against KPC strains” value is reported as “more active than Avibactam”.
In the case of `N[C@@H]1CN[C@@H](c2nnc([C@@H]3CC[C@@H]4CN3C(=O)N4OS(=O)(=O)O)o2)C1` [Compound 763, (2S,5R)-2-(5-((2R,4S)-4-aminopyrrolidin-2-yl)-1,3,4-oxadiazol-2-yl)-7-oxo-1,6-diazabicyclo[3.2.1]octan-6-yl hydrogen sulfate], the “more active than Avibactam … against KPC strains” value is reported as “more active than Avibactam”.
With `O=C1N2C[C@@H](CC[C@H]2c2nnc(CC3CCNC3)o2)N1OS(=O)(=O)O` (stereo partly drawn) [Compound 764, (2S,5R)-7-oxo-2-(5-(pyrrolidin-3-ylmethyl)-1,3,4-oxadiazol-2-yl)-1,6-diazabicyclo[3.2.1]octan-6-yl hydrogen sulfate] the “more active than Avibactam … against KPC strains” value was “more active than Avibactam”.
With `O=C1N2C[C@@H](CC[C@H]2c2nnc(CN[C@H]3CCNC3)o2)N1OS(=O)(=O)O` [Compound 765, (2S,5R)-7-oxo-2-(5-(((S)-pyrrolidin-3-ylamino)methyl)-1,3,4-oxadiazol-2-yl)-1,6-diazabicyclo[3.2.1]octan-6-yl hydrogen sulfate] the “more active than Avibactam … against KPC strains” value was “more active than Avibactam”.
In the case of `O=C1N2C[C@@H](CC[C@H]2c2nnc(CN[C@@H]3CCNC3)o2)N1OS(=O)(=O)O` [Compound 766, (2S,5R)-7-oxo-2-(5-(((R)-pyrrolidin-3-ylamino)methyl)-1,3,4-oxadiazol-2-yl)-1,6-diazabicyclo[3.2.1]octan-6-yl hydrogen sulfate], the “more active than Avibactam … against KPC strains” value is reported as “more active than Avibactam”.
For `N=C1NCC(c2nnc([C@@H]3CC[C@@H]4CN3C(=O)N4OS(=O)(=O)O)o2)N1` (stereo partly drawn) [Compound 767, (2S,5R)-2-(5-(2-iminoimidazolidin-4-yl)-1,3,4-oxadiazol-2-yl)-7-oxo-1,6-diazabicyclo[3.2.1]octan-6-yl hydrogen sulfate], the “more active than Avibactam … against KPC strains” value was “more active than Avibactam”.
With `N[C@H]1CC[C@@H](c2nnc([C@@H]3CC[C@@H]4CN3C(=O)N4OS(=O)(=O)O)o2)C1` [Compound 768, (2S,5R)-2-(5-((1R,3S)-3-aminocyclopentyl)-1,3,4-oxadiazol-2-yl)-7-oxo-1,6-diazabicyclo[3.2.1]octan-6-yl hydrogen sulfate] the “more active than Avibactam … against KPC strains” value was “more active than Avibactam”.
For `O=C1N2C[C@@H](CC[C@H]2c2nnc(CCNC3CCNCC3)o2)N1OS(=O)(=O)O` [Compound 770, (2S,5R)-7-oxo-2-(5-(2-(piperidin-4-ylamino)ethyl)-1,3,4-oxadiazol-2-yl)-1,6-diazabicyclo[3.2.1]octan-6-yl hydrogen sulfate], the “more active than Avibactam … against KPC strains” value was “more active than Avibactam”.
In the case of `O=C1N2C[C@@H](CC[C@H]2c2nnc(CCCNC3CCNCC3)o2)N1OS(=O)(=O)O` [Compound 771, (2S,5R)-7-oxo-2-(5-(3-(piperidin-4-ylamino)propyl)-1,3,4-oxadiazol-2-yl)-1,6-diazabicyclo[3.2.1]octan-6-yl hydrogen sulfate], the “more active than Avibactam … against KPC strains” value is reported as “more active than Avibactam”.
For `O=C1N2C[C@@H](CC[C@H]2c2nnc(CCCCNC3CCNCC3)o2)N1OS(=O)(=O)O` [Compound 772, (2S,5R)-7-oxo-2-(5-(4-(piperidin-4-ylamino)butyl)-1,3,4-oxadiazol-2-yl)-1,6-diazabicyclo[3.2.1]octan-6-yl hydrogen sulfate], the “more active than Avibactam … against KPC strains” value was “more active than Avibactam”.
With `NC1CCN(Cc2nnc([C@@H]3CC[C@@H]4CN3C(=O)N4OS(=O)(=O)O)o2)CC1` [Compound 774, (2S,5R)-2-(5-((4-aminopiperidin-1-yl)methyl)-1,3,4-oxadiazol-2-yl)-7-oxo-1,6-diazabicyclo[3.2.1]octan-6-yl hydrogen sulfate] the “more active than Avibactam … against KPC strains” value was “more active than Avibactam”.
For `NC1CCN(CCc2nnc([C@@H]3CC[C@@H]4CN3C(=O)N4OS(=O)(=O)O)o2)CC1` [Compound 775, (2S,5R)-2-(5-(2-(4-aminopiperidin-1-yl)ethyl)-1,3,4-oxadiazol-2-yl)-7-oxo-1,6-diazabicyclo[3.2.1]octan-6-yl hydrogen sulfate], the “more active than Avibactam … against KPC strains” value was “more active than Avibactam”.
